Where a name gives a salt, the structure may show the parent alone.
Experiments:
Format in all cases: physicochemical
[1] = Solubilization enhancement with PVP K-30 and citric acid (Preparation C)
Protocol: Approximately 1.0, 1.5, 1.6, 2.5 and 3.0 grams of amorphous paroxetine HCl were weighed into five 25-ml volumetric flasks. Ten milliliters of an ethanol-water (20% v/v ethanol) mixture containing 0.25 grams of polyvinyl pyrrolidone (PVP) K-30 and 0.02 grams of citric acid anhydrous were added into each of the five flasks and the flasks were sonicated for 30 minutes. Only the solution in flask 1 became clear while only part of the paroxetine HCl in flasks 2 through 5 dissolved.

[2] = Determination of solubility in deionized water (Preparation A); settings: room temperature, sonicated 10 min, still clear after 24 hours
Protocol: Approximately 45, 100, 200, 300, 400, 500, 510, 750 and 1000 mg of amorphous paroxetine HCl were weighed into nine 25-ml volumetric flasks labeled 1 through 9 respectively. Ten milliliters of deionized water were pipetted into each of the flasks and the flasks were stoppered. The flasks were then placed in a sonicator (Branson 1210, Danbury, Conn.) and sonicated for ten minutes taking care to see that there was no heating.

[3] = Solubility in aqueous alcohol (Preparation B)
Protocol: A. Exactly two milliliters of ethanol were added to each of the nine flasks from Preparation A and the flasks shaken gently by hand. […] B. Approximately 250, 320, 400, 570 and 1120 mg of amorphous paroxetine HCl were weighed into five 25-ml volumetric flasks labeled 1 through 5 respectively. Ten milliliters of ethanol-water mixture containing 20% v/v ethanol were pipetted into each of the flasks and the flasks were stoppered. The flasks were then placed in a sonicator (Branson 1210, Danbury, Conn.) and sonicated for ten minutes taking care to see that there was no heating.

Row | Structure (SMILES) | solubility at 30 min ([1]; 60 °C, aqueous with cosolvent or surfactant or cyclodextrin, thermodynamic from solid) | maximum solubility ([2]; HCl) | maximum solubility ([2]; listed as amorphous form of paroxetine HCl) | appearance of solution ([3]; 1120 mg in 10 ml ethanol-water 20% v/v ethanol, sonicated 10 min (flask 5)) | appearance of solution ([3]; 250, 320, 400, 570 mg in 10 ml ethanol-water 20% v/v ethanol, sonicated 10 min (flasks 1-4)) | amount that could be dissolved in hydroalcoholic solvent mixture ([3]; about 15% ethanol (10 ml water + 2 ml ethanol)) | appearance of solution upon heating ([1]; 1.0-3.0 g in 10 ml 20% v/v ethanol with 0.25 g PVP K-30 and 0.02 g citric acid, heated to about 60° C.) | appearance of solution ([1]; 1.0 g in 10 ml 20% v/v ethanol with 0.25 g PVP K-30 and 0.02 g citric acid, sonicated 30 min (flask 1)) | extent of dissolution ([1]; 1.5, 1.6, 2.5, 3.0 g in 10 ml 20% v/v ethanol with 0.25 g PVP K-30 and 0.02 g citric acid, sonicated 30 min (flasks 2-5))
1 | Fc1ccc([C@@H]2CCNC[C@H]2COc2ccc3c(c2)OCO3)cc1 [Paroxetine HCl] | > 300 mg/mL | – | – | – | – | – | – | – | –
2 | Cl.Fc1ccc([C@@H]2CCNC[C@H]2COc2ccc3c(c2)OCO3)cc1 [amorphous paroxetine HCl] | – | about 75 mg/ml | up to 75 mg/ml | clear solution with a slight precipitate | clear solutions | at least 1 gram | all the solutions became clear | became clear | only part

Source: patent US6660298B1, “Paroxetine tablets and capsules” (priority 2000, dated 2003)
